In ChEMBL document CHEMBL5036320, “Discovery of Icenticaftor (QBW251), a Cystic Fibrosis Transmembrane Conductance Regulator Potentiator with Clinical Efficacy in Cystic Fibrosis and Chronic Obstructive Pulmonary Disease” (J Med Chem, 2021):
In brackets after ≈: the same amount, converted by molar mass.

Tests used:
[1] = target: T1, Cystic fibrosis transmembrane conductance regulator (Homo sapiens, UniProt P13569, F508DEL); experiment: Potentiation of CFTR F508del mutant (unknown origin) expressed in CHO cells assessed as chloride transport by measuring membrane potential incubated for 5 to 30 mins in presence of forskolin by Quattro assay; format: cell-based
[2] = target: T1, Cystic fibrosis transmembrane conductance regulator; experiment: Potentiation of CFTR F508del mutant (unknown origin) expressed in CHO cells assessed as chloride transport by measuring membrane potential preincubated for 5 mins followed by forskolin addition by FLIPR assay; format: cell-based
[3] = target: T1, Cystic fibrosis transmembrane conductance regulator; experiment: Potentiation of CFTR F508del mutant (unknown origin) expressed in FRT cells assessed as chloride transport by measuring membrane potential in presence of forskolin; format: cell-based
[4] = target: T2, Cystic fibrosis transmembrane conductance regulator (Homo sapiens, UniProt P13569); experiment: Potentiation of wild-type CFTR (unknown origin) expressed in FRT cells assessed as chloride transport by measuring membrane potential in presence of forskolin; format: cell-based
Target sequence in this assay (P13569 whole entry): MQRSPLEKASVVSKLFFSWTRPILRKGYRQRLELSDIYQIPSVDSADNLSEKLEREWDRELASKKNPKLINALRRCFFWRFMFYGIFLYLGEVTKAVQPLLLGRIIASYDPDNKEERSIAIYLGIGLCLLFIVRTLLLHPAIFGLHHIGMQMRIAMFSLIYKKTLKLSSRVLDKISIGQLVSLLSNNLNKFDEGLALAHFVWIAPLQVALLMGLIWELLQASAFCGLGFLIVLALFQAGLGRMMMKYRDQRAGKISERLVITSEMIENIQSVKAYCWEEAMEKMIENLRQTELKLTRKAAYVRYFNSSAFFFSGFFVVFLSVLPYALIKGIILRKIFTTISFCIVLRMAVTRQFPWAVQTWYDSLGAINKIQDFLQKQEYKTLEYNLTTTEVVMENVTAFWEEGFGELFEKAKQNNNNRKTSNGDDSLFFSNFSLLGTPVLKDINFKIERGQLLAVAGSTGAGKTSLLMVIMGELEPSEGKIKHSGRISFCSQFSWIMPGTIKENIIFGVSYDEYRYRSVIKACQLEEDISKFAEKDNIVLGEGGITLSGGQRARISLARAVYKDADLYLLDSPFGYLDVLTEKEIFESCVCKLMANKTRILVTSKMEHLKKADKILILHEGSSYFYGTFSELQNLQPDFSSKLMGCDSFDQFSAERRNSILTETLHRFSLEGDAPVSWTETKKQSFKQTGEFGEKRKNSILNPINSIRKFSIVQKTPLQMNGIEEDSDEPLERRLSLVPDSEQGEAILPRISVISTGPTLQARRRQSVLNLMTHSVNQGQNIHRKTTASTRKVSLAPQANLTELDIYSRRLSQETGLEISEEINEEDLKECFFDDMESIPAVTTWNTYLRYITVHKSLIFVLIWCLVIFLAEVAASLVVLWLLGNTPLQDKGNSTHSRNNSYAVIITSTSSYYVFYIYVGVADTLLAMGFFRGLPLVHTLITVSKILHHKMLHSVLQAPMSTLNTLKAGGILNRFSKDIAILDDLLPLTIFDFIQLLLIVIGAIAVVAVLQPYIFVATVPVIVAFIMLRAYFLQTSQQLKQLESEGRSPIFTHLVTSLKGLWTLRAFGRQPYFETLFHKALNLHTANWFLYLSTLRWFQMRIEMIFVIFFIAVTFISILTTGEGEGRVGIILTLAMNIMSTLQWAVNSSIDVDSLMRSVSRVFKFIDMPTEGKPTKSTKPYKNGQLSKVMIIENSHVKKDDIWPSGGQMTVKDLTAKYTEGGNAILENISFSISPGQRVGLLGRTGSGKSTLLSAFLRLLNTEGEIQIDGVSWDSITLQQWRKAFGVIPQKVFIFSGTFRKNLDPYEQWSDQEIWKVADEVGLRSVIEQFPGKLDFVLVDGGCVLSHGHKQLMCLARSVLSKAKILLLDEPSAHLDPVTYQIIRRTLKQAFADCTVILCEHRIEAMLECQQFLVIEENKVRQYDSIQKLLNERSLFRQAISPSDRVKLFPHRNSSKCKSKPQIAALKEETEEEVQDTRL

[5] = Solubility of the compound at pH 6.8; format: physicochemical; details: buffer
[6] = test system: Cystic fibrosis transmembrane conductance regulator (Homo sapiens), P13569 [F508del]; experiment: Potentiation of CFTR F508del mutant (unknown origin) expressed in CHO cells assessed as chloride transport by measuring membrane potential incubated for 5 to 30 mins in presence of forskolin by Quattro assay relative to PG-01; format: cell-based; design: concentration or dose not given beside the values; details: filed as activator, time 5-30 min
[7] = Plasma protein binding in cynomolgus monkey at 5 uM incubated for 4 hrs by equilibrium dialysis method; format: ADME, cell-free, Macaca fascicularis; details: read-out: PPB (converted)
[8] = Plasma protein binding in Beagle dog at 5 uM incubated for 4 hrs by equilibrium dialysis method; format: ADME, cell-free, Canis lupus familiaris; details: read-out: PPB (converted)
[9] = Plasma Protein binding in human incubated for 4 hrs by equilibrium dialysis method; format: ADME, cell-free; details: read-out: PPB (converted)
[10] = Volume of distribution in Sprague-Dawley rat at 3 mg/kg, po and 1 mg/kg, iv measured upto 48 hrs by LC-MS/MS analysis; format: ADME, organism-based; details: in vivo
[11] = Drug metabolism in Sprague-Dawley rat bile assessed as glutathione adduct M9 formation at 1 mg/kg, po after 24 hrs by LC MS/MS analysis; format: ADME, organism-based; details: in vivo
[12] = test system: Cystic fibrosis transmembrane conductance regulator (Homo sapiens), P13569 [G551D]; experiment: Potentiation of CFTR G551D mutant (unknown origin) expressed in FRT cells assessed as chloride transport by measuring membrane potential in presence of forskolin relative to PG-01; format: cell-based; details: filed as activator
[13] = Plasma Protein binding in Sprague-Dawley rat at 5 uM incubated for 4 hrs by rapid equilibrium dialysis; format: ADME, cell-free; details: read-out: PPB (converted)
[14] = Toxicity in Wistar Han rat assessed as NOAEL; details: in vivo, dose 10 mg/kg
[15] = target: T1, Cystic fibrosis transmembrane conductance regulator; experiment: Potentiation of CFTR F508 deletion mutant (unknown origin) expressed in HBE cells assessed as change in short circuit current in presence of forskolin and amiloride; format: cell-based
[16] = target: Cystic fibrosis transmembrane conductance regulator (Homo sapiens, UniProt P13569, G551D); experiment: Potentiation of CFTR G551D mutant (unknown origin) expressed in FRT cells assessed as chloride transport by measuring membrane potential in presence of forskolin; format: cell-based
[17] = Unbound Cmax in Sprague-Dawley rat at 3 mg/kg, po and 1 mg/kg, iv measured upto 48 hrs by LC-MS/MS analysis; format: ADME, organism-based; details: in vivo
[18] = Clearance in Sprague-Dawley rat at 3 mg/kg, po and 1 mg/kg, iv measured upto 48 hrs by LC MS/MS analysis; format: ADME, organism-based; details: in vivo
[19] = Drug metabolism in Sprague-Dawley rat bile assessed as glutathione adduct M8 formation at 1 mg/kg, po after 24 hrs by LC MS/MS analysis; format: ADME, organism-based; details: in vivo
[20] = target: T2, Cystic fibrosis transmembrane conductance regulator; experiment: Potentiation of wild-type CFTR (unknown origin) expressed in FRT cells assessed as chloride transport by measuring membrane potential in presence of forskolin relative to PG-01; format: cell-based; details: filed as activator
Target sequence in this assay (P13569 whole entry, looked up): as the sequence (P13569 whole entry) above

[21] = test system: Cystic fibrosis transmembrane conductance regulator (Homo sapiens), P13569 [F508del]; experiment: Potentiation of CFTR F508 deletion mutant (unknown origin) expressed in HBE cells assessed as change in short circuit current in presence of forskolin and amiloride relative to PG-01; format: cell-based; details: filed as activator
[22] = Oral bioavailability in Sprague-Dawley rat at 3 mg/kg measured upto 48 hrs by LC-MS/MS analysis; format: ADME, organism-based; details: in vivo
[23] = Mean residence time in Sprague-Dawley rat at 3 mg/kg, po and 1 mg/kg, iv measured upto 48 hrs by LC-MS/MS analysis; format: ADME, organism-based; details: in vivo
[24] = Cmax in Sprague-Dawley rat at 3 mg/kg, po and 1 mg/kg, iv measured upto 48 hrs by LC-MS/MS analysis; format: ADME, organism-based; design: dose 3 mg/kg, time <=48; details: in vivo
[25] = test system: Cystic fibrosis transmembrane conductance regulator (Homo sapiens), P13569 [F508del]; experiment: Potentiation of CFTR F508del mutant (unknown origin) expressed in FRT cells assessed as chloride transport by measuring membrane potential in presence of forskolin relative to PG-01; format: cell-based; details: filed as activator
[26] = target: T2, Cystic fibrosis transmembrane conductance regulator; experiment: Potentiation of wild type CFTR (unknown origin) expressed in HBE cells assessed as change in short circuit current in presence of forskolin and amiloride; format: cell-based
Target sequence in this assay (P13569 whole entry): as above

T1 sequence (P13569 as listed by the source): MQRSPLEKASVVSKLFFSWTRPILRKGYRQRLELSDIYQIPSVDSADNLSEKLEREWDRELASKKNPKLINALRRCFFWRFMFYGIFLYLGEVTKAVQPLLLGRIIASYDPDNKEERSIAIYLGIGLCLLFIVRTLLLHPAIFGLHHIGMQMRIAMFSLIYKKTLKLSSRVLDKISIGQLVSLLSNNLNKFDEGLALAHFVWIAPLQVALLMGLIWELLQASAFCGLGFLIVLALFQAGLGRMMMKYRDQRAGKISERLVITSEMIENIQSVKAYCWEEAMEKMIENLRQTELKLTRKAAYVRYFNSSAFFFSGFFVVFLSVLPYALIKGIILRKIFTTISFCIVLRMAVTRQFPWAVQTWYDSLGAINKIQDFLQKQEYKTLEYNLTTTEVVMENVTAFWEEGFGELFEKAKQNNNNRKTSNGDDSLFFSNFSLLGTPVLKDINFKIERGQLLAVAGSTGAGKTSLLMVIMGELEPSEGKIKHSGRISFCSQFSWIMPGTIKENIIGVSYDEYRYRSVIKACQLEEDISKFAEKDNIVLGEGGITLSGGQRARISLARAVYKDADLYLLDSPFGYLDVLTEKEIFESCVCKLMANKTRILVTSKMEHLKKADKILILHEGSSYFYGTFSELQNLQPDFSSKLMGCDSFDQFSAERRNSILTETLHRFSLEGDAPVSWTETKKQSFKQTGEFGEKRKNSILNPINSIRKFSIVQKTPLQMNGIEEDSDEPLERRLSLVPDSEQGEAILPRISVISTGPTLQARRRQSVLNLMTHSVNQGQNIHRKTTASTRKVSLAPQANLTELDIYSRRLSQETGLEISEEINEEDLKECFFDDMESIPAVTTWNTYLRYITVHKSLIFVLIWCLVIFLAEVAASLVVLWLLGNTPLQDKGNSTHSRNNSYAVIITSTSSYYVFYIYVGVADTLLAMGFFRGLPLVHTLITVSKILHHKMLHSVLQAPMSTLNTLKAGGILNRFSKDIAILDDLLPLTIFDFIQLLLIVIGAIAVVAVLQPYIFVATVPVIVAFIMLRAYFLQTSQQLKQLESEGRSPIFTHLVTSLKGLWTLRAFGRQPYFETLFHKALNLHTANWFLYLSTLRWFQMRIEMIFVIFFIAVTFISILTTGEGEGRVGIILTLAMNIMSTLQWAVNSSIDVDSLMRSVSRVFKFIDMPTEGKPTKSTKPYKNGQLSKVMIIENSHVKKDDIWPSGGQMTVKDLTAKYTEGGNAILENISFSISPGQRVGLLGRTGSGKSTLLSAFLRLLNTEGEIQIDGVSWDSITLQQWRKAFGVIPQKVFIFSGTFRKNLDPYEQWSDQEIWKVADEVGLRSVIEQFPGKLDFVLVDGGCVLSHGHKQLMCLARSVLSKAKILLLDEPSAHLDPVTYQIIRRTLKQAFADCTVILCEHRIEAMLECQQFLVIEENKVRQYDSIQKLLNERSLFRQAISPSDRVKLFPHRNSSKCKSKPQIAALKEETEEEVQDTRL
Sequence of Cystic fibrosis transmembrane conductance regulator (Homo sapiens), P13569 [F508del] (P13569 as listed by the source): as above
Sequence of Cystic fibrosis transmembrane conductance regulator (Homo sapiens, UniProt P13569, G551D) (P13569 whole entry G551D): as the sequence (P13569 whole entry) above, with G551D counted along it
Sequence of Cystic fibrosis transmembrane conductance regulator (Homo sapiens), P13569 [G551D] (P13569 whole entry G551D): as the sequence (P13569 whole entry) above, with G551D counted along it

SMILES	EC50 [1] [nM]	solubility [5] [µg/mL]	Activity [6] [%]	further results
CC(C)c1ccc(NC(=O)C(c2ccccc2)N(C)C(=O)Cc2c[nH]c3ccccc23)cc1 (stereo not given)	1250	–	–	EC50 [2]: 390 nM; EC50 [3]: 260 nM; EC50 [4]: 990 nM
COC(=O)c1cc(I)c(C(F)(F)F)cc1N	362	2 (≈ 5.8 µM)	104	–
CNc1nc(C(=O)NCC(C)(O)C(F)(F)F)c(N)cc1C(F)(F)F (stereo in doubt; 30b) [listing 2 of 2 here]	–	–	95	–
COC(=O)c1cc(C2CCCO2)c(C(F)(F)F)cc1N (racemic)	462	6 (≈ 20.7 µM)	90	–
COc1nc(C(=O)NC[14C](C)(O)C(F)(F)F)c(N)cc1C(F)(F)F (stereo not given)	–	–	–	fraction unbound at 4 h, 5 µM [7]: 0.12; fraction unbound at 4 h, 5 µM [8]: 0.052; fraction unbound at 4 h [9]: 0.077
CCc1nc(C(=O)NCC(C)(O)C(F)(F)F)c(N)cc1C(F)(F)F (stereo in doubt; 28a) [listing 2 of 2 here]	–	–	100	–
COC(=O)c1nc(-c2ccco2)c(C(F)(F)F)cc1N	5310	11 (≈ 38.4 µM)	72	–
CC(C)(C)c1cc(C(C)(C)C)c(NC(=O)c2c[nH]c3ccccc3c2=O)cc1O [IVACAFTOR]	–	–	–	EC50 [3]: 49 nM; EC50 [26]: 34 nM; EC50 [15]: 68 nM; EC50 [16]: 131 nM; EC50 [4]: 70 nM
Nc1cc(C(F)(F)F)c(-c2ccco2)cc1C(=O)O	5830	–	63	–

More lines, main results first:

EC50 [1] [nM]	solubility [5] [µg/mL]	Activity [6] [%]	SMILES	further results
111	–	–	CNc1nc(C(=O)NCC(C)(O)C(F)(F)F)c(N)cc1C(F)(F)F (stereo in doubt; 30b) [listing 1 of 2 here]	–
46	–	–	CN(C)c1nc(C(=O)NCC(C)(O)C(F)(F)F)c(N)cc1C(F)(F)F (stereo in doubt; 31b)	–
276	13 (≈ 36.1 µM)	–	CNc1nc(C(=O)NCC(C)(O)C(F)(F)F)c(N)cc1C(F)(F)F (stereo in doubt; 30a)	–
15	140 (≈ 341 µM)	107	C[C@](O)(CNC(=O)c1nc(Br)c(C(F)(F)F)cc1N)C(F)(F)F	Vd [10]: 6.5 L/kg; Drug metabolism [11]: Metabolite_Detected; Activity [12]: 67%; EC50 [3]: 18 nM; fraction unbound at 4 h, 5 µM [13]: 0.031; NOAEL [14]: < 10 mg/kg; EC50 [15]: 25 nM; EC50 [16]: 150 nM; fCmax [17]: 25 nM; clearance [18]: 17 mL/min/kg; Drug metabolism [19]: Metabolite_Detected; Activity [20]: 140%; EC50 [4]: 43 nM; Activity [21]: 113%; fraction unbound at 4 h [9]: 0.025; bioavailability [22]: 114%; MRT [23]: 6.4 h; Cmax [24]: 634 nM; Activity [25]: 106%
30	16 (≈ 39 µM)	91	C[C@@](O)(CNC(=O)c1nc(Br)c(C(F)(F)F)cc1N)C(F)(F)F	–
15	60 (≈ 160 µM)	116	CCOc1nc(C(=O)NC[C@](C)(O)C(F)(F)F)c(N)cc1C(F)(F)F	–
40	49 (≈ 129 µM)	132	Nc1cc(C(F)(F)F)c(Br)nc1C(=O)NCCC(F)(F)F	–
8	91 (≈ 253 µM)	–	CCc1nc(C(=O)NCC(C)(O)C(F)(F)F)c(N)cc1C(F)(F)F (stereo in doubt; 28a) [listing 1 of 2 here]	–
20	165 (≈ 441 µM)	–	CN(C)c1nc(C(=O)NCC(C)(O)C(F)(F)F)c(N)cc1C(F)(F)F (stereo in doubt; 31a)	–
329	56 (≈ 189 µM)	100	COC(=O)c1cc(-c2cccnc2)c(C(F)(F)F)cc1N	–
70	120 (≈ 351 µM)	79	CC(O)CNC(=O)c1nc(Br)c(C(F)(F)F)cc1N (racemic)	–
